{
  "source": "patent US9408848B2",
  "about": "“Fluorescent CDK inhibitors for treatment of cancer” (Georgetown University, priority 2008, dated 2016)",
  "key": {"[1]": {"system": "T1, CDK1/cyclinA (Homo sapiens)", "T1 construct": "purchased Millipore, Dundee, UK (screening service)", "experiment": "Kinase assay ([γ-33P]-ATP, histone H1)", "format": "biochemical", "conditions": "read-out: % inhibition of kinase activity, CDK1/cyclinA", "experimental": "(§1) The final reaction was carried out in a 25 μL solution.\n(§2) Briefly assays were performed with a Biomek 2000 Laboratory Automation Workstation in a 96-well format (Beckman instruments, Palo Alto, Calif., U.S.A) for 40 min at ambient temperature in 25 μL incubations using [γ-^33P]-ATP. In a final reaction volume of 25 μL corresponding CDK/cyclin (h) (5-10 mU) was incubated with 8 mM MOPS pH 7.0, 0.2 mM EDTA, 0.1 mg/mL histone H1, 10 mM MgAcetate and [γ-^33P-ATP](specific activity approx. 500 cpm/pmol, concentration as required). The reaction was initiated by the addition of the MgATP mix. After incubation for 40 min at room temperature, the reaction was stopped by the addition of 5 μL of a 3% phosphoric acid solution."}, "CDK1/cyclinB": {"target": "T2, CDK1/cyclinB (Homo sapiens, UniProt P06493)", "T2 construct": "purchased Millipore, Dundee, UK (screening service)", "T2 sequence (P06493 whole entry)": "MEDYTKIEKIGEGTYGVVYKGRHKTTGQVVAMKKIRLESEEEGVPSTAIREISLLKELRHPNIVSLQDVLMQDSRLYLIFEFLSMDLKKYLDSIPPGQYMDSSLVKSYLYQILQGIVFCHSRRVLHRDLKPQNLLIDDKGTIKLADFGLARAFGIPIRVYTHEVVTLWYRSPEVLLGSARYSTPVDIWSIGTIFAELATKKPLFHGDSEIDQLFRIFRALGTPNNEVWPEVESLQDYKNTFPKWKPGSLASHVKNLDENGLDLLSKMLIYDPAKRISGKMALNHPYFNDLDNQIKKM", "T2 sequence (P14635 whole entry partner)": "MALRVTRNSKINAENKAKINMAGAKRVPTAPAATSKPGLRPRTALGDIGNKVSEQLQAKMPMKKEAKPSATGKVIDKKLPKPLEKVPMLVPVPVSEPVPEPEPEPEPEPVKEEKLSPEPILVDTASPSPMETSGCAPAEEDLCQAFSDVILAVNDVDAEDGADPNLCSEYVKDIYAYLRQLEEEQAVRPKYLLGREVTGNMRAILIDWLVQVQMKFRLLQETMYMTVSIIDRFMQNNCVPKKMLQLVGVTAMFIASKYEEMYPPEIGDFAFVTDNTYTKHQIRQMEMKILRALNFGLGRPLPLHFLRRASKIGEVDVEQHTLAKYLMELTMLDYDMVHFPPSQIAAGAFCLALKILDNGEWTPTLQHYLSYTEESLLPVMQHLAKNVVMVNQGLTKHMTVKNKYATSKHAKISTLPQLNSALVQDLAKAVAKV", "experiment": "Kinase assay ([γ-33P]-ATP, histone H1)", "format": "biochemical", "conditions": "compound 0.1 μM", "experimental": "as §1, §2"}, "CDK2/cyclinE": {"target": "T3, CDK2/cyclinE (Homo sapiens, UniProt P24941)", "T3 construct": "purchased Millipore, Dundee, UK (screening service)", "experiment": "Kinase assay ([γ-33P]-ATP, histone H1)", "format": "biochemical", "conditions": "read-out: % inhibition of kinase activity, CDK2/cyclinE", "experimental": "as §1, §2"}, "CDK3/cyclinE": {"target": "T4, CDK3/cyclinE (Homo sapiens, UniProt Q00526)", "T4 construct": "purchased Millipore, Dundee, UK (screening service)", "experiment": "Kinase assay ([γ-33P]-ATP, histone H1)", "format": "biochemical", "conditions": "read-out: % inhibition of kinase activity, CDK3/cyclinE", "experimental": "as §1, §2"}, "CDK7/cyclinH/MATI": {"target": "T5, CDK7/cyclinH/MATI (Homo sapiens, UniProt P50613)", "T5 construct": "purchased Millipore, Dundee, UK (screening service)", "T5 sequence (P50613 whole entry)": "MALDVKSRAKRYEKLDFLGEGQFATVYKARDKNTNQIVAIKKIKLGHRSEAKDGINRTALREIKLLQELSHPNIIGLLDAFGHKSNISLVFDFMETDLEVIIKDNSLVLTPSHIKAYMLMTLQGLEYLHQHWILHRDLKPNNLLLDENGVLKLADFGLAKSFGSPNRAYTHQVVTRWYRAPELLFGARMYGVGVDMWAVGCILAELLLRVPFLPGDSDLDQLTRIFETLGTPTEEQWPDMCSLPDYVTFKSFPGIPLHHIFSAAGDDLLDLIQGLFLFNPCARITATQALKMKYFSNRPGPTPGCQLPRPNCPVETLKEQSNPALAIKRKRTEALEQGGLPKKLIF", "T5 sequence (P51946 whole entry partner)": "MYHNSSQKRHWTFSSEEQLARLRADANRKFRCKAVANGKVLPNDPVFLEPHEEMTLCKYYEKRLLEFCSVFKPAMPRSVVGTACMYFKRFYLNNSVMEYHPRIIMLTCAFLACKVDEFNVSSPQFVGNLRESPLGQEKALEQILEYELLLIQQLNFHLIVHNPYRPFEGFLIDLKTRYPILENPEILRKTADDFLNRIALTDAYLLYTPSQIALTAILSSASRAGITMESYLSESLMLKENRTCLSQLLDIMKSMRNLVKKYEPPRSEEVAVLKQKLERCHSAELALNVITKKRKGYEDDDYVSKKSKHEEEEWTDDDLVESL", "T5 sequence (P51948 whole entry partner)": "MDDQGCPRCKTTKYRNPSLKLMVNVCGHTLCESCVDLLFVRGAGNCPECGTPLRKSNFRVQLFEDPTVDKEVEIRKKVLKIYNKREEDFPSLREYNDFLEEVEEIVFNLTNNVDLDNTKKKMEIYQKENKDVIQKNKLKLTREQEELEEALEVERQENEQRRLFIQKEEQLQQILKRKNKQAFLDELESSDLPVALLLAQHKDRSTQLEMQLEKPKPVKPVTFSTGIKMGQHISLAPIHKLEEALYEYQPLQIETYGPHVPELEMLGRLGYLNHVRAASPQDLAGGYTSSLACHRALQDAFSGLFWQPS", "experiment": "Kinase assay ([γ-33P]-ATP, histone H1)", "format": "biochemical", "conditions": "read-out: % inhibition of kinase activity, CDK7/cyclinH/MATI", "experimental": ". The final reaction was carried out in a 25 μL solution. The respective kinases (at […] were incubated with 8 mM MOPS (pH 7.0), 0.2 mM EDTA, 0.1 mg/ml histone H1, 10 mM MgAcetate and [γ-33P-ATP] (specific activity approximately 500 cpm/pmol, concentration as required). The reaction was then initiated by the addition of the MgATP mix. The reaction was stopped after 40 min of incubation by adding 5 μL of a 3% phosphoric acid solution. 10 μL of the reaction was spotted onto a P30 filter mat and washed 3 times for 5 min in 75 mM phosphoric acid and one in methanol prior to drying and counted radioactivity by scintillation counting. […]. Table 1 summarizes the cytotoxic effects of VMY compounds and its controls on breast cancer cell line.\nas §2, with “Kinase selectivity of compounds VMY-1-101 and VMY-1-103 were screened at Millipore, Dundee, UK. Briefly” for “Briefly”, “solution. From the reaction, 10 μL was spotted onto a P30 filtermat and washed three times for 5 minutes in 75 mM phosphoric acid and once in methanol prior to dying and scintillation counting.” for “solution.”"}, "MCF-7 [2]": {"system": "MCF-7", "experiment": "Cell viability assay (WST-1)", "format": "cell-based, human", "conditions": "Homo sapiens, MCF7, 48 h, read-out: IC50 (concentration yielding 50% growth inhibition)", "experimental": "(§3) (10%), 2 mM L-glutamine, and 50 μg/mL each of antibiotics, namely penicillin, streptomycin, and neomycin at 37° C. in a humidified incubator containing 5% CO2\n(§4) Briefly human breast cancer cells were seeded into a 96-well plate at 3000 cells per well in DMEM containing 10% FBS. Following 24 hours attachment period, compounds were dissolved in DMSO and serially diluted in tissue culture media and added to the cells in triplicate, and incubated for 48 h at 37° C. Control cells were treated with equal amount of DMSO. After 48 h incubation, cell viability was measured by WST-1 assay according to the manufacturer's instructions (Roche). […] The formazan absorbance, which correlates to the number of living cells, was measured at 450 nm and 630 nm as reference filter using a microplate reader. (Ultramark, Microplate Imaging System, Bio-Rad). The IC50 was calculated from the graph of the log of the compound concentration versus the fraction of the surviving cells."}, "MDA-MB-231 [3]": {"system": "MDA-MB-231", "experiment": "Cell viability assay (WST-1)", "format": "cell-based, human", "conditions": "Homo sapiens, MDA-MB-231, 48 h, read-out: IC50 (concentration yielding 50% growth inhibition)", "experimental": "as §3, §4"}, "MCF-7 [4]": {"system": "MCF-7", "experiment": "Cell cycle analysis by flow cytometry (propidium iodide)", "format": "cell-based, human", "experimental": "(§5) 5 μM concentrations were used for all drugs tested. The cells were exposed to the vehicle (DMSO) or […] of the CDK inhibitors for 24 hrs. The cell cycle distribution was then assessed using standard procedures."}, "MDA-MB-231 [5]": {"system": "MDA-MB-231", "experiment": "Cell cycle analysis by flow cytometry (propidium iodide)", "format": "cell-based, human", "experimental": "as §5"}, "MDA-MB-231 cells": {"system": "MDA-MB-231 cells", "experiment": "Apoptotic signaling, Western blot of apoptosis related proteins", "format": "cell-based, human", "conditions": "MDA-MB-231, 10 μM, 48 hours", "experimental": "In order to understand whether VMY-1-101 and VMY-1-103 compounds were able to induce apoptotic cell death, the expression of anti- and pro-apoptotic proteins in MDA-MB-231 cells following treatment with 10 μM drugs for 48 hours was evaluated first. […] This is further confirmed with proapoptotic 116 kDa poly (ADP-ribose) polymerase protein (PARP) into its 89-kDa fragments. […].\nWestern blotting was performed according to literature procedure. In brief, cell pellets were collected at the indicated times after treatment with compounds, suspended in 100 μL of lysis buffer (50 mM Tris-HCl, 150 mM NaCl, 1 mM EGTA, 1 mM EDTA, 20 mM NaF, 100 mM Na3VO4, 0.5% NP-40, 1% Triton X-100, 1 mM PMSF, 5 μg/ml aprotinin, 5 μg/ml leupeptin), vortexed twice and incubated in an ice bath for 30 min. Lysates were cleared by centrifugation at 12000 rpm for 15 min at 4° C. and protein was estimated by detergent compatible BCA protein assay kit (Pierce). Equivalent amounts of total proteins were resolved by SDS-PAGE (10%) and transferred to PVDF membrane. Membranes were blocked by 5% non-fat powdered milk in TBST overnight. Membranes were incubated with indicated primary antibodies for 2 hours followed by HRP-conjugated secondary antibodies for 1 hr and developed using enhanced chemiluminescence kit (Perkin Elmer)."}},
  "data": [
    {"compound": "CC[C@H](CO)Nc1nc(Nc2ccc(C(=O)NCCNS(=O)(=O)c3cccc4c(N(C)C)cccc34)c(Cl)c2)c2ncn(C(C)C)c2n1", "note": "[VMY-1-101, 2-Chloro-N-[2-(5-dimethylamino-naphthalene-1-sulfonylamino)-ethyl]-4-[2-(1-hydroxymethyl-propylamino)-9-isopropyl-9H-purin-6-ylamino]-benzamide]", "values": [
      {"measurement": "inhibition at 0.1 µM", "setting": "[1]", "value": 62, "unit": "%"},
      {"measurement": "inhibition at 0.1 µM", "setting": "CDK1/cyclinB", "value": "16 ± 3", "unit": "%"},
      {"measurement": "inhibition at 0.1 µM", "setting": "CDK2/cyclinE", "value": 87, "unit": "%"},
      {"measurement": "inhibition at 0.1 µM", "setting": "CDK3/cyclinE", "value": "40 ± 3", "unit": "%"},
      {"measurement": "inhibition at 0.1 µM", "setting": "CDK7/cyclinH/MATI", "value": 57, "unit": "%"},
      {"measurement": "IC50", "setting": "MCF-7 [2]", "value": "19.1 ± 1.14", "unit": "µM"},
      {"measurement": "IC50", "setting": "MDA-MB-231 [3]", "value": "4.86 ± 1.24", "unit": "µM"},
      {"measurement": "effect on cell cycle progression (G2/M phase)", "setting": "MCF-7 [4]; MCF-7, 5, 10 μM, 24 hrs", "value": "induced the cell cycle progression in G2/M phase"},
      {"measurement": "% G1", "setting": "MCF-7 [4]; MCF-7, 24 hrs, 5 μM", "value": "63.56 ± 1.20", "unit": "%"},
      {"measurement": "% S", "setting": "MCF-7 [4]; MCF-7, 24 hrs, 5 μM", "value": "10.75 ± 0.88", "unit": "%"},
      {"measurement": "% Sub-G1", "setting": "MCF-7 [4]; MCF-7, 24 hrs, 5 μM", "value": "2.08 ± 0.19", "unit": "%"},
      {"measurement": "effect on cell cycle progression (G2/M phase)", "setting": "MDA-MB-231 [5]; MDA-MB-231, 5, 10 μM, 24 hrs", "value": "induced the cell cycle progression in G2/M phase"},
      {"measurement": "% G1", "setting": "MDA-MB-231 [5]; MDA-MB-231, 24 hrs, 5 μM", "value": "51.5 ± 0.50", "unit": "%"},
      {"measurement": "% S", "setting": "MDA-MB-231 [5]; MDA-MB-231, 24 hrs, 5 μM", "value": "25.05 ± 0.45", "unit": "%"},
      {"measurement": "% Sub-G1", "setting": "MDA-MB-231 [5]; MDA-MB-231, 24 hrs, 5 μM", "value": "2.01 ± 0.19", "unit": "%"},
      {"measurement": "PARP cleavage", "setting": "MDA-MB-231 cells", "value": "moderate cleavage of the 116-kDa full length PARP into an 89-kDa fragment"},
      {"measurement": "protein level of full length caspase 3 and 7", "setting": "MDA-MB-231 cells", "value": "decrease in protein level of full length caspase 3 and 7"}
    ]}
  ]
}
